In paper PMC8956739, “A synthetic lipopeptide targeting top-priority multidrug-resistant Gram-negative pathogens” (Nature Communications, 2022):
In brackets after ≈: the same amount, converted by molar mass. Several values for one entry are separate records, joined by “and”; a condition that tells them apart may be missing. Equal values may be shown once. Read-outs that look alike come from different tables or passages of the source. Residues, ends and D or L forms follow the SMILES beside them.

Assays:
P. aeruginosa ATCC 27853 [1] = assay: Neutropenic mouse bloodstream infection model; assay type: in vivo; conditions: single IV dose 4 mg/kg; for Log10 CFU/mL blood at 4 h, Mean / Δlog10 CFU/mL blood (mean) / Log10 CFU/mL blood at 4 h, single mouse: 4 h; for Δlog10 CFU/mL blood (mean): treated minus control, mean of replicates; for Δlog10 CFU/mL blood (mean) / Log10 CFU/mL blood at 4 h, single mouse / Delta Log10 CFU/mL blood at 4 h, single mouse: 4 mg/kg; for Delta Log10 CFU/mL blood at 4 h, single mouse: treated mouse minus mean of vehicle mice
Procedure, shortened: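 Female Swiss mice made neutropenic with cyclophosphamide (150 mg/kg day −4, 100 mg/kg day −1), infected IV with 50 µL of 4 × 10^8 CFU/mL. Lipopeptide 4 mg/kg (free base) IV at 2 h post-inoculation, n = 3. Efficacy = Δlog10 CFU/mL blood versus saline at 4 h post-dose.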

Swiss mice, kidney = assay: Nephrotoxicity in mice (kidney histopathology); assay type: in vivo, mouse; conditions: for Kidney histopathology (SQS Score): n = 3
Procedure, shortened: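 Female Swiss mice (7-week-old, 22–28 g) received lipopeptides in saline either s.c. at 12 mg/kg ×6 every 2 h (total 72 mg/kg, n = 3) or i.p. at 20 or 25 mg/kg ×6 every 2 h (total 120 mg/kg, n = 6; 150 mg/kg, n = 3). Right kidney collected 20 h after last dose, fixed in 10% buffered formalin (pH 7.4), histology scored blinded.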

A. baumannii ATCC 19606 = assay type: cell-based, Acinetobacter baumannii
Procedure, shortened: (§1)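 Susceptibility: microdilution MIC in CaMHB.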

A. baumannii FADDI-AB030 = assay type: cell-based, Acinetobacter baumannii
Procedure, shortened: (§2)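 Each strain is tested in cation-adjusted Mueller–Hinton broth using the micro-dilution technique, and growth inhibition gives the MIC.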

A. baumannii FADDI-AB034 = assay type: cell-based, Acinetobacter baumannii
Procedure, shortened: as §2

P. aeruginosa ATCC 27853 [2] = assay type: cell-based, Pseudomonas aeruginosa
Procedure, shortened: as §1

[3] = system: P. aeruginosa FADDI-PA025; assay type: cell-based, Pseudomonas aeruginosa
Procedure, shortened: as §2

[4] = system: P. aeruginosa FADDI-PA038; assay type: cell-based, Pseudomonas aeruginosa
Procedure, shortened: as §2

[5] = system: K. pneumoniae FADDI-KP032; assay type: cell-based, Klebsiella pneumoniae
Procedure, shortened: as §2

[6] = system: K. pneumoniae FADDI-KP065; assay type: cell-based, Klebsiella pneumoniae
Procedure, shortened: as §2

[7] = 72 mg/kg/d subcutaneously in six divided doses every 2 h

Row | Compound | Log10 CFU/mL blood at 4 h, Mean (P. aeruginosa ATCC 27853 [1]) [Log10 CFU/mL blood] | Δlog10 CFU/mL blood (mean) (P. aeruginosa ATCC 27853 [1]) [log10 CFU/mL blood] | Log10 CFU/mL blood at 4 h, single mouse (P. aeruginosa ATCC 27853 [1]) | Delta Log10 CFU/mL blood at 4 h, single mouse (P. aeruginosa ATCC 27853 [1]) | Kidney histopathology (SQS Score) (Swiss mice, kidney; [7]) | Kidney histopathology, mice with the SQS score (Swiss mice, kidney; mouse, in vivo) | MIC A. baumannii ATCC 19606 (A. baumannii ATCC 19606; ATCC 19606) [µg/mL] | MIC A. baumannii FADDI-AB030 (A. baumannii FADDI-AB030; FADDI-AB030) [µg/mL] | MIC A. baumannii FADDI-AB034 (A. baumannii FADDI-AB034; FADDI-AB034) [µg/mL] | MIC P. aeruginosa ATCC 27853 (P. aeruginosa ATCC 27853 [2]; ATCC 27853) [µg/mL] | MIC P. aeruginosa FADDI-PA025 ([3]; FADDI-PA025) [µg/mL] | MIC P. aeruginosa FADDI-PA038 ([4]; FADDI-PA038) [µg/mL] | MIC K. pneumoniae FADDI-KP032 ([5]; FADDI-KP032) [µg/mL] | MIC K. pneumoniae FADDI-KP065 ([6]; FADDI-KP065) [µg/mL] | also measured
1 | CCCCCCCCC(=O)N[C@@H](CCN)C(=O)N[C@H](C(=O)N[C@@H](CN)C(=O)N[C@H]1CCNC(=O)[C@H]([C@@H](C)O)NC(=O)[C@H](CCN)NC(=O)[C@H](CCN)NC(=O)[C@H](CC)NC(=O)[C@@H](CC(C)C)NC(=O)[C@H](CCN)NC1=O)[C@@H](C)O [Lipopeptide F314] (HELM PEPTIDE1{[CCCCCCCCC(=O)[*:2]].[Dab].T.[NC[C@H](N[*:1])C(=O)[*:2]].[Dab].[Dab].[dL].[Abu].[Dab].[Dab].T}$PEPTIDE1,PEPTIDE1,5:R3-11:R2$$$V2.0) | 4.33 | −2.82 | 4.52 Log10 CFU/mL blood and 4.04 Log10 CFU/mL blood and 4.42 Log10 CFU/mL blood | -2.63 Log10 CFU/mL blood and -3.10 Log10 CFU/mL blood and -2.72 Log10 CFU/mL blood | +1 (SQS + 1 = mild damage (overall score, 1 to <15)) | 3/3 | 0.5 (≈ 0.443 µM) | 0.5 (≈ 0.443 µM) | 2 (≈ 1.77 µM) | 1 (≈ 0.887 µM) | >32 | 2 (≈ 1.77 µM) | <0.125 | 0.25 (≈ 0.222 µM) | 
2 | CC[C@@H]1NC(=O)[C@@H](CC(C)C)NC(=O)[C@H](CCN)NC(=O)[C@@H](NC(=O)[C@H](CN)NC(=O)[C@@H](NC(=O)[C@H](CCN)NC(=O)c2c(Cl)cccc2Cl)[C@@H](C)O)CCNC(=O)[C@H]([C@@H](C)O)NC(=O)[C@H](CCN)NC(=O)[C@H](CCN)NC1=O [Lipopeptide F360] (HELM PEPTIDE1{[O=C(c1c(Cl)cccc1Cl)[*:2]].[Dab].T.[NC[C@H](N[*:1])C(=O)[*:2]].[Dab].[Dab].[dL].[Abu].[Dab].[Dab].T}$PEPTIDE1,PEPTIDE1,5:R3-11:R2$$$V2.0) | 7.04 | −0.07 | 7.26 Log10 CFU/mL blood and 6.45 Log10 CFU/mL blood and 7.41 Log10 CFU/mL blood | 0.15 Log10 CFU/mL blood and -0.66 Log10 CFU/mL blood and 0.30 Log10 CFU/mL blood | 0 (SQS 0 = no significant change (overall score, <1)) | 3/3 | 16 (≈ 13.8 µM) | 4 (≈ 3.45 µM) | 8 (≈ 6.9 µM) | 0.5 (≈ 0.431 µM) | 4 (≈ 3.45 µM) | 4 (≈ 3.45 µM) | 1 (≈ 0.862 µM) | 0.5 (≈ 0.431 µM) | 
3 | CC[C@@H]1NC(=O)[C@@H](CC(C)C)NC(=O)[C@H](CCN)NC(=O)[C@@H](NC(=O)[C@H](CN)NC(=O)[C@@H](NC(=O)[C@H](CCN)NC(=O)c2cccc(Cl)c2)[C@@H](C)O)CCNC(=O)[C@H]([C@@H](C)O)NC(=O)[C@H](CCN)NC(=O)[C@H](CCN)NC1=O [Lipopeptide F371] (HELM PEPTIDE1{[O=C(c1cccc(Cl)c1)[*:2]].[Dab].T.[NC[C@H](N[*:1])C(=O)[*:2]].[Dab].[Dab].[dL].[Abu].[Dab].[Dab].T}$PEPTIDE1,PEPTIDE1,5:R3-11:R2$$$V2.0) | 4.61 | −3.33 | 4.74 Log10 CFU/mL blood and 4.86 Log10 CFU/mL blood and 4.22 Log10 CFU/mL blood | -3.20 Log10 CFU/mL blood and -3.08 Log10 CFU/mL blood and -3.71 Log10 CFU/mL blood | 0 (SQS 0 = no significant change (overall score, <1)) |  |  |  |  |  |  |  |  |  | Kidney histopathology, mice with the SQS score (Swiss mice, kidney; [7]): 3/3; MIC A. baumannii ATCC 19606 (A. baumannii ATCC 19606): 4 µg/mL (≈ 3.55 µM); MIC A. baumannii FADDI-AB030 (A. baumannii FADDI-AB030; carbapenem-resistant isolate): 1 µg/mL (≈ 0.888 µM); MIC A. baumannii FADDI-AB034 (A. baumannii FADDI-AB034; carbapenem-resistant isolate): 1 µg/mL (≈ 0.888 µM); MIC P. aeruginosa ATCC 27853 (P. aeruginosa ATCC 27853 [2]): 0.5 µg/mL (≈ 0.444 µM); MIC P. aeruginosa FADDI-PA025 ([3]; MDR clinical isolate): 1 µg/mL (≈ 0.888 µM); MIC P. aeruginosa FADDI-PA038 ([4]; carbapenem-resistant isolate): 2 µg/mL (≈ 1.78 µM); MIC K. pneumoniae FADDI-KP032 ([5]; carbapenem-resistant isolate): 0.5 µg/mL (≈ 0.444 µM); MIC K. pneumoniae FADDI-KP065 ([6]; carbapenem-resistant isolate): 1 µg/mL (≈ 0.888 µM)
4 | CC[C@@H]1NC(=O)[C@@H](CC(C)C)NC(=O)[C@H](CCN)NC(=O)[C@@H](NC(=O)[C@H](CN)NC(=O)[C@@H](NC(=O)[C@H](CCN)NC(=O)c2ccc(Cl)cc2)[C@@H](C)O)CCNC(=O)[C@H]([C@@H](C)O)NC(=O)[C@H](CCN)NC(=O)[C@H](CCN)NC1=O [Lipopeptide F378] (HELM PEPTIDE1{[O=C(c1ccc(Cl)cc1)[*:2]].[Dab].T.[NC[C@H](N[*:1])C(=O)[*:2]].[Dab].[Dab].[dL].[Abu].[Dab].[Dab].T}$PEPTIDE1,PEPTIDE1,5:R3-11:R2$$$V2.0) | 4.71 | −3.23 | 4.78 Log10 CFU/mL blood and 4.64 Log10 CFU/mL blood | -3.16 Log10 CFU/mL blood and -3.30 Log10 CFU/mL blood | 0 (SQS 0 = no significant change (overall score, <1)) | 3/3 | 1 (≈ 0.888 µM) | 1 (≈ 0.888 µM) | 0.25 (≈ 0.222 µM) | 0.5 (≈ 0.444 µM) | 2 (≈ 1.78 µM) | 1 (≈ 0.888 µM) | 0.25 (≈ 0.222 µM) | 1 (≈ 0.888 µM) | 
5 | CC[C@@H]1NC(=O)[C@@H](CC(C)C)NC(=O)[C@H](CCN)NC(=O)[C@@H](NC(=O)[C@H](CN)NC(=O)[C@@H](NC(=O)[C@H](CCN)NC(=O)c2ccc(C)cc2)[C@@H](C)O)CCNC(=O)[C@H]([C@@H](C)O)NC(=O)[C@H](CCN)NC(=O)[C@H](CCN)NC1=O [Lipopeptide F383] (HELM PEPTIDE1{[Cc1ccc(C(=O)[*:2])cc1].[Dab].T.[NC[C@H](N[*:1])C(=O)[*:2]].[Dab].[Dab].[dL].[Abu].[Dab].[Dab].T}$PEPTIDE1,PEPTIDE1,5:R3-11:R2$$$V2.0) | 4.91 | −3.02 | 5.76 Log10 CFU/mL blood and 4.40 Log10 CFU/mL blood and 4.59 Log10 CFU/mL blood | -2.18 Log10 CFU/mL blood and -3.54 Log10 CFU/mL blood and -3.35 Log10 CFU/mL blood | 0 (SQS 0 = no significant change (overall score, <1)) | 3/3 | 2 (≈ 1.81 µM) | 2 (≈ 1.81 µM) | 2 (≈ 1.81 µM) | 0.5 (≈ 0.452 µM) | 2 (≈ 1.81 µM) | 1 (≈ 0.905 µM) | 1 (≈ 0.905 µM) | 1 (≈ 0.905 µM) | 
6 | CC[C@@H]1NC(=O)[C@@H](CC(C)C)NC(=O)[C@H](CCN)NC(=O)[C@@H](NC(=O)[C@H](CN)NC(=O)[C@@H](NC(=O)[C@H](CCN)NC(=O)c2ccc(Cl)cc2F)[C@@H](C)O)CCNC(=O)[C@H]([C@@H](C)O)NC(=O)[C@H](CCN)NC(=O)[C@H](CCN)NC1=O [Lipopeptide F448] (HELM PEPTIDE1{[O=C(c1ccc(Cl)cc1F)[*:2]].[Dab].T.[NC[C@H](N[*:1])C(=O)[*:2]].[Dab].[Dab].[dL].[Abu].[Dab].[Dab].T}$PEPTIDE1,PEPTIDE1,5:R3-11:R2$$$V2.0) | 4.51 | −3.06 | 4.51 Log10 CFU/mL blood and 4.31 Log10 CFU/mL blood and 4.72 Log10 CFU/mL blood | -3.07 Log10 CFU/mL blood and -3.27 Log10 CFU/mL blood and -2.85 Log10 CFU/mL blood | 0 (SQS 0 = no significant change (overall score, <1)) | 3/3 | 2 (≈ 1.75 µM) | 1 (≈ 0.874 µM) | 0.5 (≈ 0.437 µM) | 0.5 (≈ 0.437 µM) | 1 (≈ 0.874 µM) | 0.5 (≈ 0.437 µM) | <0.125 | 0.25 (≈ 0.219 µM) | 
